Like-named read-outs stand apart in the source and are kept apart here.
Experiments:
[1] = test system: Pythium ultimum; experiment: Pythium ultimum (Damping off) growth inhibition in potato dextrose broth, microtiter plate; assay type: cell-based; conditions: Globisporangium ultimum, 24° C., after 48 hours, read-out: control of fungal infection (inhibition of growth, determined photometrically)
[2] = test system: Pyrenophora teres; assay type: in vivo; conditions: 200 ppm
[3] = test system: Septoria nodorum; assay type: in vivo; conditions: 200 ppm
[4] = test system: Puccinia recondita f.sp. tritici; assay type: in vivo; conditions: 200 ppm

CC#CC(C)(C)NC(=O)C(COC)Oc1ccc2ncccc2c1 (centres unmarked) [2(11), 2-(6-quinolinyloxy)-N-(2-methylpent-3-yn-2-yl)-3-methoxypropionamide]
inhibition at 20 ppm ([1]; potato dextrose broth): > 60%

CC#CC(C)(C)NC(=O)C(CC)Oc1ccc2ncncc2c1 (centres unmarked) [2(20), 2-(6-quinazolinoxy)-N-(4-methylpent-2-yn-4-yl) butyramide]
control of fungal infection (preventive fungicidal activity) [2]: more than 60%

CC#CC(C)(C)NC(=O)C(COC)Oc1ccc2ccncc2c1 (centres unmarked) [2(49), 2-(7-isoquinolinyloxy)-N-(2-methylpent-3-yn-2-yl)-3-methoxypropionamide]
inhibition at 20 ppm ([1]; potato dextrose broth): > 60% | melting point: 155 to 156 °C

CCC(Oc1ccc2ncccc2c1)C(=O)NC(C)(C)C#CCO (centres unmarked) [10(1), 2-(6-quinolinyloxy)-N-(1-hydroxy-4-methylpent-2-yn-4-yl) butyramide]
control of fungal infection (preventive fungicidal activity) [3]: more than 60%

CCC(Oc1ccc2ncccc2c1)C(=O)NC(C)(C)C#CCOC (centres unmarked) [12(1), 2-(6-quinolinyloxy)-N-(1-methoxy-4-methylpent-2-yn-4-yl)butyramide]
inhibition at 20 ppm [1]: > 60%

CCC(Oc1ccc2ncccc2c1)C(=O)NC(C)(C)C#CCO[Si](C)(C)C(C)(C)C (centres unmarked) [50(1), 2-(6-quinolinyloxy)-N-(1-tert-butyldi-methylsilyloxy-4-methylpent-2-yn-4-yl)butyramide]
inhibition at 20 ppm [1]: > 60%

CCC(Oc1ccc2ncc(Br)cc2c1)C(=O)NC(C)(C)C#CCCCC#N (centres unmarked) [90(77), 2-(3-bromo-6-quinolinyloxy)-N-(1-cyano-6-methylhept-4-yn-6-yl) butyramide]
control of fungal infection (preventive fungicidal activity) [4]: more than 60%

Source: patent US7371764B2, “Quinolin-isoquinolin-and quinazolin-oxyalkylamides and their use as fungicides” (priority 2002, dated 2008)
